This series can be described thus: pH of acidic substance (2.5% liquid in water, pH meter). The class given is physicochemical. Particulars: 50 mg in 1,950 μL of water (concentration 2.5%). As for the experimental part:
The “acidic substance” described herein is a substance which is dissolved in water to generate hydrogen ions.

Drawing on US9687453B2, “Solid pharmaceutical composition” (KYORIN PHARMACEUTICAL CO., LTD., priority 2013, dated 2017), this text covers pH for one compound.

For `Cl.N[C@@H](CCC(=O)O)C(=O)O` [L-glutamic acid hydrochloride], the pH is listed as ≤ 3.5.
